In patent US10874631B2, “Altertoxin II as a selective inhibitor of Ewing family of tumor cells” (priority 2016, dated 2020):

Experiments:
[1] = test system: SK-N-BE2; assay: SRB assay, growth inhibition; assay type: cell-based
Procedure: (§1) FIG. 3A-3B. (A) The effects of altertoxin II were evaluated using the SRB assay in 6 Ewing sarcoma cell lines as compared to 4 other pediatric solid tumor cells lines. n≥3 independent experiments. (B) The effects of altertoxin II were evaluated by the Houghton laboratory using the alamar blue assay in an additional 6 Ewing sarcoma cell lines and potency compared to the activities in 5 rhabdomyosarcoma cell lines. n=3 independent experiments.
(§2) The effects of altertoxin II were studied in a larger panel of cell lines and the GI50, the concentration that causes 50% inhibition of cell growth, and the TGI, the concentration that caused total growth inhibition, were determined using the sulforhodamine b (SRB assay). The mean GI50 values shown graphically in FIG. 3A. The IC50, the concentration that causes 50% inhibition of cell proliferation, values were determined in a second panel of Ewing sarcoma and rhabdomyosarcoma cell lines using the altar blue assay and these values are presented in Table 2 and the mean in […].

[2] = test system: RD-ES; assay: SRB assay, growth inhibition; assay type: cell-based; conditions: EWS
Procedure: as §1, §2

[3] = test system: TC-32 cells; assay: Altertoxin II concentration in cell media by LC/MS; assay type: in vitro ADME; conditions: TC-32 media, after 2 h
Procedure: (§3) An experiment was conducted to test this possibility. TC-32 Ewing sarcoma and Rh30 rhabdomyosarcoma cells were treated with 100 nM ATX for 6 h and the conditioned media was then applied to the resistant Rh30 cells. […] Differences in the altertoxin II concentration were measured by LC/MS in media from TC-32 and HepG2 hepatocellular carcinoma cells.

[4] = test system: HepG2 hepatocellular carcinoma cells; assay: Altertoxin II concentration in cell media by LC/MS; assay type: in vitro ADME; conditions: after 2 h
Procedure: as §3

[5] = test system: Ewing sarcoma cells; assay: Panel of 5 pediatric cancer cell lines, selective cytotoxicity; assay type: cell-based; conditions: 5 types of solid pediatric cancers
[6] = test system: Ewing sarcoma cell lines; assay: alamar blue panel, selectivity Ewing sarcoma vs rhabdomyosarcoma cell lines; assay type: cell-based; conditions: alamar blue assay, mean IC50; 6 Ewing sarcoma vs 6 rhabdomyosarcoma cell lines
Procedure: FIG. 3A-3B. (A) The effects of altertoxin II were evaluated using the SRB assay in 6 Ewing sarcoma cell lines as compared to 4 other pediatric solid tumor cells lines. n≥3 independent experiments. […]
as §2

[7] = test system: 4 Ewing sarcoma cell lines, including SK-ES-1 cells; assay: Cell cycle distribution by flow cytometry; assay type: cell-based; conditions: each of 4 Ewing sarcoma lines
Procedure: FIG. 5A-5B. Altertoxin II causes accumulation of SK-ES-1 Ewing sarcoma cells in the S-phase of the cell cycle. Cell cycle analysis of SK-ES-1 cells by flow cytometry. (A) Histogram of DNA content after treatment with two different concentrations of ATX for 18 hours. (B) quantification of cells in each cell cycle phase.
The effects of altertoxin II on cell cycle distribution were evaluated in 4 Ewing sarcoma cell lines using flow cytometry.

[8] = test system: Ewing sarcoma cell lines; assay: SRB assay panel, selectivity Ewing sarcoma vs other pediatric solid tumor cell lines; assay type: cell-based; conditions: mean GI50, 6 Ewing sarcoma cell lines
Procedure: as §1, §2

[9] = test system: Rh30; assay: alamar blue assay, proliferation; assay type: cell-based; conditions: Rh30, Rhabdomyosarcoma
Procedure: as §1, §2

[10] = test system: Rh28; assay: alamar blue assay, proliferation; assay type: cell-based; conditions: Rh28, Rhabdomyosarcoma
Procedure: as §1, §2

[11] = test system: ES-8; assay: alamar blue assay, proliferation; assay type: cell-based; conditions: Homo sapiens, ES8, ES-8, Ewing Sarcoma
Procedure: as §1, §2

[12] = test system: EW-8; assay: alamar blue assay, proliferation; assay type: cell-based
Procedure: as §1, §2

[13] = test system: ES-7; assay: alamar blue assay, proliferation; assay type: cell-based; conditions: Homo sapiens, ES7, ES-7, Ewing Sarcoma
Procedure: as §1, §2

[14] = test system: ES-4; assay: alamar blue assay, proliferation; assay type: cell-based; conditions: ES-4, Ewing Sarcoma
Procedure: as §1, §2

[15] = test system: ES-2; assay: alamar blue assay, proliferation; assay type: cell-based; conditions: Homo sapiens, ES-2, Ewing Sarcoma, N = 3-6
Procedure: as §1, §2

[16] = test system: Rh41; assay: alamar blue assay, proliferation; assay type: cell-based; conditions: Homo sapiens, Rh41, Rhabdomyosarcoma
Procedure: as §1, §2

[17] = test system: Rh36; assay: alamar blue assay, proliferation; assay type: cell-based; conditions: Rh36, Rhabdomyosarcoma
Procedure: as §1, §2

[18] = test system: Rh5; assay: alamar blue assay, proliferation; assay type: cell-based; conditions: Rh5, Rhabdomyosarcoma
Procedure: as §1, §2

[19] = test system: TC-71; assay: alamar blue assay, proliferation; assay type: cell-based; conditions: TC-71, Ewing Sarcoma
Procedure: as §1, §2

[20] = test system: Rh18; assay: alamar blue assay, proliferation; assay type: cell-based; conditions: Homo sapiens, Rh18, Rhabdomyosarcoma
Procedure: as §1, §2

[21] = test system: RD-ES cells; assay: G1 arrest with CDK4/6 inhibitor and SRB concentration-response; assay type: cell-based; conditions: RD-ES pre-treated with LSN2813542 (100 nM); SRB assay
Procedure: FIG. 6. Concentration-response curves for altertoxin II (ATX) with and without pre-treatment with the CDK4/6 inhibitor LSN2813542 (100 nM) using the SRB assay, n=3.
An experiment was designed to evaluate whether the effects of altertoxin II in Ewing sarcoma cells required cell cycle transition. RD-ES cells were arrested in the G1 phase of the cell cycle using the CDK4/6 inhibitor LSN2813542. LSN2813542 (100 nM) had no effect on RD-ES cell viability, but caused greater than 85% of the cells to arrest in G1 for at least 48 h. The arrested cells were then treated with altertoxin II and a concentration-response curve generated.

[22] = test system: Rh30 rhabdomyosarcoma cells; assay: γH2AX high-content imaging; assay type: cell-based
Procedure: (§4) FIG. 7A-7B. Altertoxin II (ATXII) selectively induces γH2AX foci in A673 Ewing sarcoma cells. (A) A673 cells were treated for 24 h with 100 nM altertoxin II and serine 139 phosphorylation of γH2AX evaluated by indirect immunofluorescence techniques. (B) High-content imaging and image analysis were used to construct concentration-response curves for nuclear γH2AX intensity in A673 and Rh30 rhabdomyosarcoma cells after treatment with altertoxin II for 6 h.
(§5) Studies were conducted to test whether altertoxin II initiates DNA damage in Ewing sarcoma cells because of the well-known sensitivity of these cells to DNA damage and prior reports of altertoxin II-induced DNA damage in other mammalian cells (Fleck, S. C. et al., Toxicol Lett, 214, 27-32, 2012). […] Consistent with these measures of DNA damage altertoxin II.

[23] = test system: A673 Ewing sarcoma cells; assay: γH2AX immunofluorescence / high-content imaging; assay type: cell-based
Procedure: as §4, §5

Work on `O=C1CC[C@]2(O)c3c(ccc(O)c31)-c1ccc(O)c3c1[C@H]2[C@H]1O[C@H]1C3=O` [altertoxin II] yielded a GI50 ([1]; Homo sapiens, SKNBE2, SK-N-BE2, NB) of 1000 nM, a TGI ([1]; SK-N-BE2, NB) of 2000 nM and a GI50 ([2]; n ≥ 3) of 14 nM. The TGI ([2]; total growth inhibitory concentration) was 60 nM, the “altertoxin II remaining in media” value [3] was “approximately 25%” and the “altertoxin II remaining in media” value [4] was “no altertoxin II was detectable”. For the same compound, the “selective cytotoxic activity against Ewing sarcoma cells” value [5] was “potent, Ewing sarcoma-specific effects”, the “selectivity of Ewing sarcoma cell lines vs rhabdomyosarcoma cell lines” value [6] was 89 fold and the cell cycle distribution [7] was “Concentration-dependent S-phase arrest”. The “selectivity of Ewing sarcoma cell lines vs other pediatric solid tumor cell lines” value [8] was 58 fold, the IC50 [9] was 750 ± 60 nM and the IC50 [10] was 790 ± 90 nM. The IC50 [11] was 7 ± 1 nM, the IC50 ([12]; EW8, EW-8, Ewing Sarcoma, alamar blue) was 6.5 ± 0.3 nM and the “sensitivity of EW-8 cell line” value ([12]; EW-8 is resistant to PARP1 inhibitors) was “highly sensitive”. It also gave an IC50 [13] of 3 ± 1 nM, an IC50 [14] of 20 ± 2 nM and an IC50 [15] of 23 ± 4 nM. It also gave an IC50 [16] of 1130 ± 300 nM, an IC50 [17] of 1030 ± 210 nM and an IC50 [18] of 1050 ± 230 nM. The IC50 [19] was 4.6 ± 0.5 nM, the IC50 [20] was 990 ± 120 nM and the “increase in total growth inhibition concentration (TGI) after G1 arrest” value [21] was 28 fold. For the same compound, the γH2AX foci ([22]; 10 μM, 24 h exposure) was “did initiate γH2AX foci”, the γH2AX foci ([22]; concentrations up to 1 μM, 6 or 24 h) was “no γH2AX foci were detected” and the “nuclear γH2AX, high-content imaging” value ([23]; 30 nM, 6 h) was “caused an increase in γH2AX”. For the same compound, the “H2AX serine 139 phosphorylation (γH2AX)” value ([23]; 100 nM, within 6 h) was “rapidly induced H2AX serine 139 phosphorylation”.
